Test results reported in BindingDB's records for doi:10.1016/j.bmcl.2019.126899 (Sanford Burnham Prebys Medical Discovery Institute, 2020).
pIC50: −log10 of the molar value.

Test: Inhibition of CXCR6-mediated cell invasion in human SKHEP1 cells after 72 hrs by transwell assay

With COc1cc(C(=O)N[C@@H]2C[C@H]3CCC[C@@H](C2)N3Cc2nc3c(C(F)(F)F)cccc3s2)cc(OC)c1OC the pIC50 was 5.68.
